From patent US4216214A, “4-Tert. butyl-3'-chlorodiphenylamine derivatives, their preparation and their application as anti-histaminic drugs” (PRODESIN (Productos Esteve Internacional S.A.), priority 1977, dated 1980)
Where “and” joins values, the source holds several entries; their conditions need not be identical. Equal values may be shown once.

Tests used:
[1] = test system: "H2" histamine receptor sites; experiment: Gastric anti-secretory action, secretion stimulated by histamine (Ghosh and Schild method); assay type: in vivo, Sprague-Dawley rats; conditions: intravenous dose inhibiting by 50% the gastric secretion caused by histamine 2.5 μmoles/kg i.v., rats
Protocol: (§1) Sprague-Dawley rats having a body weight of from 300 to 350 g are used for studying the antagonistic action of the "H2 " histamine receptor sites by the method described by Ghosh and Schild (1958). The gastric secretion is stimulated by intravenous injection of constant doses of histamine (2.5 μmoles/kg) or of carbachol (5 nmoles /kg). The gastric anti-secretory action is then determined by the intravenous dose (in μmole/kg) of derivative which inhibits by 50% the effect caused by the histamine or carbachol (DI-50).

[2] = test system: gastric secretion stimulated by carbachol; experiment: Gastric anti-secretory action, secretion stimulated by carbachol (Ghosh and Schild method); assay type: in vivo, Sprague-Dawley rats; conditions: Rattus norvegicus; intravenous dose inhibiting by 50% the gastric secretion caused by carbachol 5 nmoles/kg i.v., rats; read-out: DI-50 with carbachol
Protocol: as §1

[3] = test system: Ileum of Guinea Pig (agonist Histamine); experiment: Test on isolated organ: contraction by histamine; assay type: cell-based; conditions: Cavia porcellus, agonist Histamine 0.05 μ, read-out: Cl-50 of products, Histamine
Protocol: (§2) During this test, the products are added to the bath in an aqueous solution. The interaction of the various products is determined with different […]: Histamine, acetyl choline, serotonine and norepinephrine. The […] are employed in constant doses to produce contractions in the various biological reactants described below in table III.
(§3) The micromolar concentration which inhibits 50% of the response produced by the constant concentration of each agonist (Cl-50) is determined for each derivative.

[4] = test system: Ileum of Guinea Pig (agonist Acetyl Choline); experiment: Test on isolated organ: contraction by acetyl choline; assay type: cell-based; conditions: Cavia porcellus, agonist Acetyl Choline 0.05 μ, read-out: Cl-50 of products, Acetyl Choline
Protocol: as §2, §3

[5] = test system: Uterus of Rat (agonist Seratonine); experiment: Test on isolated organ: contraction by serotonine; assay type: cell-based; conditions: agonist Seratonine 0.10 μ, read-out: Cl-50 of products, Seratonine
Protocol: as §2, §3

[6] = test system: Deferent of Rat (agonist Norepinephrine); experiment: Test on isolated organ: contraction by norepinephrine; assay type: cell-based; conditions: agonist Norepinephrine 1.0 μ, read-out: Cl-50 of products, Norepinephrine
Protocol: as §2, §3

Acute toxicity in mice = conditions: mouse, in vivo
Protocol: The lethal dose 50 (LD-50) of various derivatives administered orally and intra-peritoneally to mice weighing between 20 and 25 g was determined.

Acute toxicity in rats = conditions: rat, in vivo; Sprague-Dawley rats 150 to 180 g, oral; read-out: LD-50 by the oral route in rats
Protocol: The acute toxicity was determined by oral means in Sprague-Dawley rats having a body weight of 150 to 180 g. The LD-50 of N-(2-piperidinoethyl)-tertiary-butyl-3'-chlorodiphenylamine hydrochloride by the oral route in rats is above 3500 mg/kg.

[7] = Sub-acute toxicity by oral means with rats; conditions: rat, in vivo
Protocol: Three batches of Sprague-Dawley rats each consisting of six males and six females were used. N-(2-piperidinoethyl)-4-tertiary-butyl-3'-chlorodiphenylamine hydrochloride was administered orally to the first two batches in doses of 200 mg/kg and 50 mg/kg respectively. The third batch received a zero dose (distilled water) and was thus used as a control.

[8] = ip, mice 20-25 g, intra-peritoneal, read-out: LD-50 i.p.
[9] = mice 20-25 g, oral, read-out: LD-50 Orally

SMILES: CC(C)(C)c1ccc(N(CCN2CCCCC2)c2cccc(Cl)c2)cc1 [Example 1, N-(2-piperidino-ethyl)-4-tertiary butyl-3'-chlorodiphenylamine]
- DI-50 with histamine [1]: 1.0 µmol/kg
- ED50 [2]: > 20 µmol/kg
- IC50 [3]: 2.25 µM
- IC50 [4]: 25.5 µM
- IC50 [5]: 380 nM
- IC50 [6]: 24.5 µM
- LD50 (Acute toxicity in mice; ip, read-out: LD-50 i.p.): 1000 mg/kg and 2450 µmol/kg
- LD50 (Acute toxicity in mice; po, read-out: LD-50 Orally): > 3500 mg/kg and > 8500 µmol/kg
- LD50 (Acute toxicity in rats): > 3500 mg/kg
- mortality ([7]; 50 mg/kg): 8.33%
- mortality ([7]; 200 mg/kg): 33%

SMILES: CCN(CC)CCN(c1ccc(C(C)(C)C)cc1)c1cccc(Cl)c1 [Example 3, N(2-diethylaminoethyl)-4-tert.butyl 3'-chlorodiphenylamine]
- DI-50 with histamine [1]: 6.0 µmol/kg
- ED50 [2]: > 20 µmol/kg
- IC50 [3]: 27.9 µM
- IC50 [4]: 25.3 µM
- IC50 [5]: 2600 nM
- IC50 [6]: 25 µM
- LD50 (Acute toxicity in mice; [8]): 395 mg/kg and 1000 µmol/kg
- LD50 (Acute toxicity in mice; [9]): > 6000 mg/kg and > 15000 µmol/kg

SMILES: CC(C)(C)c1ccc(N(CCN2CCCC2)c2cccc(Cl)c2)cc1 [Example 4, N(2-pyrrolidinoethyl)-4-tert.butyl 3'-chlorodiphenylamine]
- DI-50 with histamine [1]: 2.2 µmol/kg
- ED50 [2]: 20 µmol/kg
- IC50 [3]: 19.8 µM
- IC50 [4]: 25.4 µM
- IC50 [5]: 50 nM
- IC50 [6]: 25.4 µM
- LD50 (Acute toxicity in mice; [8]): 155 mg/kg and 390 µmol/kg
- LD50 (Acute toxicity in mice; [9]): 3000 mg/kg and 7620 µmol/kg
